Laboratory results from US20210238176A1, “PESTICIDALLY-ACTIVE BICYCLIC HETEROAROMATIC COMPOUNDS” (SYNGENTA CROP PROTECTION AG, priority 2018, published 2021).

Assays:
Format in all cases: in vivo
[1] = system: neonicotinoid-resistant Myzus persicae; experiment: Myzus persicae (neonicotinoid-resistant) mixed population, contact/feeding, pepper plants; details: 120 h, neonicotinoid-resistant strain on pepper plants, 5 days after treatment, read-out: control (mortality)
Procedure: Myzus persicae (Neonicotinoid-Resistant, Green Peach Aphid), Mixed Population, Contact/Feeding.
Pepper plants were infested with mixed aged neonicotinoid-resistant aphid population and were treated 1 day after infestation with diluted test solutions in a spray chamber. 5 days after treatment, samples were assessed for mortality.

[2] = system: Myzus persicae (Green Peach Aphid); experiment: Myzus persicae intrinsic activity, sucrose solution under Parafilm; details: 120 h, test rate 12 ppm, 5 days after infestation
Description: Myzus persicae (Green Peach Aphid). Intrinsic Activity
Test compounds prepared from 10,000 ppm DMSO stock solutions were applied by pipette into 24-well microtiter plates and mixed with sucrose solution. The plates were closed with a stretched Parafilm. A plastic stencil with 24 holes was placed onto the plate and infested pea seedlings were placed directly on the Parafilm. The infested plate was closed with a gel blotting paper and another plastic stencil and then turned upside down. The samples were assessed for mortality 5 days after infestation.

[3] = system: Myzus persicae (Green Peach Aphid); experiment: Myzus persicae systemic activity, pea seedling roots in test solution; details: 144 h, test rate 24 ppm, systemic via pea seedling roots, 6 days
Procedure: Myzus persicae (Green Peach Aphid). Systemic Activity
Roots of pea seedlings infested with an aphid population of mixed ages were placed directly into aqueous test solutions prepared from 10,000 ppm DMSO stock solutions. The samples were assessed for mortality 6 days after placing seedlings into test solutions.

[4] = system: Nilaparvata lugens (Brown Plant Hopper, metabolic neonicotinoid-resistant); experiment: Nilaparvata lugens (metabolic neonicotinoid-resistant) larvicide, feeding/contact, rice plants; details: 168 h, N3 nymphs, neonicotinoid-resistant strain, 7 days after treatment, read-out: control (mortality and growth regulation)
Procedure: Nilaparvata lugens (Brown Plant Hopper—Metabolic Neonicotinoid-Resistant), Larvicide, Feeding/Contact
Rice plants were treated with the diluted test solutions in a spray chamber. After drying, the plants were infested with ˜20 N3 nymphs. 7 days after the treatment, samples were assessed for mortality and growth regulation.

[5] = system: Bemisia tabaci (Cotton White Fly); experiment: Bemisia tabaci (cotton white fly) feeding/contact activity, cotton leaf discs; details: foliar, 144 h, application rate 200 ppm, adult white flies, 6 days after incubation
Procedure: Bemisia tabaci (Cotton White Fly): Feeding/Contact Activity
Cotton leaf discs were placed on agar in 24-well microtiter plates and sprayed with aqueous test solutions prepared from 10,000 ppm DMSO stock solutions. After drying the leaf discs were infested with adult white flies. The samples were checked for mortality 6 days after incubation.

[6] = system: Myzus persicae (Green Peach Aphid); experiment: Myzus persicae (green peach aphid) feeding/contact activity, sunflower leaf discs; details: foliar, 144 h, application rate 200 ppm, aphid population of mixed ages, 6 days after infestation
Procedure: Myzus persicae (Green Peach Aphid): Feeding/Contact Activity
Sunflower leaf discs were placed onto agar in a 24-well microtiter plate and sprayed with aqueous test solutions prepared from 10,000 ppm DMSO stock solutions. After drying, the leaf discs were infested with an aphid population of mixed ages. The samples were assessed for mortality 6 days after infestation.

Cn1cc(-n2c3cccn(Cc4ccc(Cl)nc4)c-3nc2=O)cn1 [Compound A3, 4-[(6-chloro-3-pyridyl)methyl]-1-(1-methylpyrazol-4-yl)imidazo[4,5-b]pyridin-2-one]
≥ 80%: mortality at 200 ppm [1] | mortality at 12 ppm [2] | mortality at 24 ppm [3] | mortality at 200 ppm [4] | mortality at 200 ppm [5] | mortality at 200 ppm [6]

CCn1cc(-n2c3cccn(Cc4ccc(Cl)nc4)c-3nc2=O)c(C)n1 [Compound A101, 4-[(6-chloro-3-pyridyl)methyl]-1-(1-ethyl-3-methyl-pyrazol-4-yl)imidazo[4,5-b]pyridin-2-one]
≥ 80%: mortality at 12 ppm [2] | mortality at 200 ppm [5] | mortality at 200 ppm [6]

O=c1nc2n(Cc3ccc(Cl)nc3)cccc-2n1-c1cccnc1 [Compound A33, 4-[(6-chloro-3-pyridyl)methyl]-1-(3-pyridyl)imidazo[4,5-b]pyridin-2-one]
≥ 80%: mortality at 12 ppm [2] | mortality at 24 ppm [3] | mortality at 200 ppm [4] | mortality at 200 ppm [6]

Cc1nn(C(C)C)cc1-n1c2cccn(Cc3ccc(Cl)nc3)c-2nc1=O [Compound A102, 4-[(6-chloro-3-pyridyl)methyl]-1-(1-isopropyl-3-methyl-pyrazol-4-yl)imidazo[4,5-b]pyridin-2-one]
≥ 80%: mortality at 12 ppm [2] | mortality at 24 ppm [3] | mortality at 200 ppm [5] | mortality at 200 ppm [6]

CC(C)n1cc(-n2c3cccn(Cc4ccc(Cl)nc4)c-3nc2=O)cn1 [Compound A62, 4-[(6-chloro-3-pyridyl)methyl]-1-(1-isopropylpyrazol-4-yl)imidazo[4,5-b]pyridin-2-one]
≥ 80%: mortality at 12 ppm [2] | mortality at 200 ppm [5] | mortality at 200 ppm [6]

O=c1nc2n(Cc3ccc(Cl)nc3)cccc-2n1-c1ccccc1 [Compound A34, 4-[(6-chloro-3-pyridyl)methyl]-1-phenyl-imidazo[4,5-b]pyridin-2-one]
≥ 80%: mortality at 12 ppm [2] | mortality at 24 ppm [3] | mortality at 200 ppm [4] | mortality at 200 ppm [6]

O=c1nc2n(Cc3ccc(Cl)nc3)cccc-2n1-c1ccc(OC(F)(F)F)cc1 [Compound A39, 4-[(6-chloro-3-pyridyl)methyl]-1-[4-(trifluoromethoxy)phenyl]imidazo[4,5-b]pyridin-2-one]
≥ 80%: mortality at 12 ppm [2] | mortality at 200 ppm [5] | mortality at 200 ppm [6]

Cn1cc(-n2c3cccn(Cc4ccc(Cl)nc4)c-3nc2=O)c(C(F)(F)F)n1 [Compound A96, 4-[(6-chloro-3-pyridyl)methyl]-1-[1-methyl-3-(trifluoromethyl)pyrazol-4-yl]imidazo[4,5-b]pyridin-2-one]
≥ 80%: mortality at 12 ppm [2] | mortality at 24 ppm [3] | mortality at 200 ppm [5] | mortality at 200 ppm [6]

O=c1nc2n(Cc3ccc(Cl)nc3)cccc-2n1-c1cccc(F)c1 [Compound A31, 4-[(6-chloro-3-pyridyl)methyl]-1-(3-fluorophenyl)imidazo[4,5-b]pyridin-2-one]
≥ 80%: mortality at 12 ppm [2] | mortality at 24 ppm [3] | mortality at 200 ppm [4]

Cn1ccc(-n2c3cccn(Cc4ccc(Cl)nc4)c-3nc2=O)n1 [Compound A2, 4-[(6-chloro-3-pyridyl)methyl]-1-(1-methylpyrazol-3-yl)imidazo[4,5-b]pyridin-2-one]
≥ 80%: mortality at 200 ppm [1] | mortality at 12 ppm [2] | mortality at 24 ppm [3] | mortality at 200 ppm [6]

Cc1nn(C(F)F)cc1-n1c2cccn(Cc3ccc(Cl)nc3)c-2nc1=O [Compound A98, 4-[(6-chloro-3-pyridyl)methyl]-1-[1-(difluoromethyl)-3-methyl-pyrazol-4-yl]imidazo[4,5-b]pyridin-2-one]
≥ 80%: mortality at 12 ppm [2] | mortality at 24 ppm [3] | mortality at 200 ppm [6]

COc1ccccc1-n1c2cccn(Cc3ccc(Cl)nc3)c-2nc1=O [Compound A82, 4-[(6-chloro-3-pyridyl)methyl]-1-(2-methoxyphenyl)imidazo[4,5-b]pyridin-2-one]
≥ 80%: mortality at 12 ppm [2] | mortality at 24 ppm [3] | mortality at 200 ppm [6]

O=c1nc2n(Cc3ccc(Cl)nc3)cccc-2n1-c1ccc(F)cc1 [Compound A32, 4-[(6-chloro-3-pyridyl)methyl]-1-(4-fluorophenyl)imidazo[4,5-b]pyridin-2-one]
≥ 80%: mortality at 12 ppm [2] | mortality at 24 ppm [3] | mortality at 200 ppm [6]

O=c1nc2n(Cc3ccc(Cl)nc3)cccc-2n1-c1cncs1 [Compound A66, 4-[(6-chloro-3-pyridyl)methyl]-1-thiazol-5-yl-imidazo[4,5-b]pyridin-2-one]
≥ 80%: mortality at 12 ppm [2] | mortality at 200 ppm [5] | mortality at 200 ppm [6]

CCCn1cc(-n2c3cccn(Cc4ccc(Cl)nc4)c-3nc2=O)cn1 [Compound A83, 4-[(6-chloro-3-pyridyl)methyl]-1-(1-propylpyrazol-4-yl)imidazo[4,5-b]pyridin-2-one]
≥ 80%: mortality at 12 ppm [2] | mortality at 24 ppm [3] | mortality at 200 ppm [5] | mortality at 200 ppm [6]

CCc1nn(C)cc1-n1c2cccn(Cc3ccc(Cl)nc3)c-2nc1=O [Compound A100, 4-[(6-chloro-3-pyridyl)methyl]-1-(3-ethyl-1-methyl-pyrazol-4-yl)imidazo[4,5-b]pyridin-2-one]
≥ 80%: mortality at 12 ppm [2] | mortality at 24 ppm [3] | mortality at 200 ppm [5] | mortality at 200 ppm [6]

O=c1nc2n(Cc3ccc(Cl)nc3)cccc-2n1-c1cnn(CC(F)(F)F)c1 [Compound A85, 4-[(6-chloro-3-pyridyl)methyl]-1-[1-(2,2,2-trifluoroethyl)pyrazol-4-yl]imidazo[4,5-b]pyridin-2-one]
≥ 80%: mortality at 12 ppm [2] | mortality at 24 ppm [3] | mortality at 200 ppm [5] | mortality at 200 ppm [6]

O=c1nc2n(Cc3ccc(Cl)nc3)cccc-2n1-c1cnn(C(F)(F)F)c1 [Compound A80, 4-[(6-chloro-3-pyridyl)methyl]-1-[1-(trifluoromethyl)pyrazol-4-yl]imidazo[4,5-b]pyridin-2-one]
≥ 80%: mortality at 200 ppm [1] | mortality at 12 ppm [2] | mortality at 200 ppm [5] | mortality at 200 ppm [6]

O=c1nc2n(Cc3ccc(Cl)nc3)cccc-2n1-c1ccc(C(F)(F)F)cc1 [Compound A13, 4-[(6-chloro-3-pyridyl)methyl]-1-[4-(trifluoromethyl)phenyl]imidazo[4,5-b]pyridin-2-one]
≥ 80%: mortality at 12 ppm [2] | mortality at 200 ppm [5] | mortality at 200 ppm [6]

N#Cc1ccccc1-n1c2cccn(Cc3ccc(Cl)nc3)c-2nc1=O [Compound A40, 2-[4-[(6-chloro-3-pyridyl)methyl]-2-oxo-imidazo[4,5-b]pyridin-1-yl]benzonitrile]
≥ 80%: mortality at 12 ppm [2] | mortality at 24 ppm [3] | mortality at 200 ppm [6]

O=c1nc2n(Cc3ccc(Cl)nc3)cccc-2n1-c1ccoc1 [Compound A70, 4-[(6-chloro-3-pyridyl)methyl]-1-(3-furyl)imidazo[4,5-b]pyridin-2-one]
≥ 80%: mortality at 12 ppm [2] | mortality at 200 ppm [5]

Cn1nc(C(F)(F)F)cc1-n1c2cccn(Cc3ccc(Cl)nc3)c-2nc1=O [Compound A88, 4-[(6-chloro-3-pyridyl)methyl]-1-[2-methyl-5-(trifluoromethyl)pyrazol-3-yl]imidazo[4,5-b]pyridin-2-one]
≥ 80%: mortality at 12 ppm [2] | mortality at 24 ppm [3] | mortality at 200 ppm [5] | mortality at 200 ppm [6]

CC(C)n1nccc1-n1c2cccn(Cc3ccc(Cl)nc3)c-2nc1=O [Compound A94, 4-[(6-chloro-3-pyridyl)methyl]-1-(2-isopropylpyrazol-3-yl)imidazo[4,5-b]pyridin-2-one]
≥ 80%: mortality at 12 ppm [2] | mortality at 24 ppm [3] | mortality at 200 ppm [5] | mortality at 200 ppm [6]

Cn1cc(-n2c3cccn(Cc4ccc(Cl)nc4)c-3nc2=O)c(C(F)F)n1 [Compound A95, 4-[(6-chloro-3-pyridyl)methyl]-1-[3-(difluoromethyl)-1-methyl-pyrazol-4-yl]imidazo[4,5-b]pyridin-2-one]
≥ 80%: mortality at 12 ppm [2] | mortality at 24 ppm [3] | mortality at 200 ppm [6]

Cn1ncc(-n2c3cccn(Cc4ccc(Cl)nc4)c-3nc2=O)c1C(F)F [Compound A97, 4-[(6-chloro-3-pyridyl)methyl]-1-[5-(difluoromethyl)-1-methyl-pyrazol-4-yl]imidazo[4,5-b]pyridin-2-one]
≥ 80%: mortality at 12 ppm [2] | mortality at 24 ppm [3] | mortality at 200 ppm [6]
